Patent US20240238293A1, “COMBINED PHARMACEUTICAL PREPARATION FOR TREATING A TERMINAL NON-SMALL CELL LUNG CANCER PATIENT WITH BRAIN METASTASIS” (DELTA-FLY PHARMA, INC., priority 2020, published 2024)
“Also recorded” adds a separate entry of the source.

Assays:
[1] = Afatinib 40 mg/day alone; terminal (stage III to IV) NSCLC patients; 229 patients, phase III; cited from earlier work
[2] = Phase II clinical trial of concurrent low-dose Ubenimex and low-dose Afatinib: adverse effects; format: in vivo, human patients; conditions: within the combination (FIG. 2)
Description: To patients with non-small cell lung cancer having a mutation in the epidermal growth factor receptor (EGFR) gene, 10 mg/day of Ubenimex in a single dose unit (free form) and 20 mg/day of Afatinib (Giotrif®, dimaleate) in a single dose unit were administered in concurrently once a day until no antitumor effects would be exerted. The therapeutic effects and reduction of adverse effects were then inspected. […]

Row | Structure (SMILES) | adverse effects, such as diarrhea and rashes [1] | adverse effects of Afatinib at about 20 mg/day, such as diarrhea or rashes ([2]; about 20 mg/day in a single dose unit) | adverse effects of Ubenimex at about 10 mg/day ([2]; about 10 mg/day in a single dose unit)
1 | CN(C)CC=CC(=O)Nc1cc2c(Nc3ccc(F)c(Cl)c3)ncnc2cc1O[C@H]1CCOC1 [Afatinib, N-[4-[(3-chloro-4-fluorophenyl)amino]-7-[[(3S)-tetrahydro-3-furanyl]oxy]-6-quinazolinyl]-4-(dimethylamino)-2-butenamide] | likely to appear; also recorded: likely to be caused | substantially no adverse effects | 
2 | CC(C)C[C@H](NC(=O)[C@@H](O)[C@H](N)Cc1ccccc1)C(=O)O [Ubenimex, (2S)-2-[(2S,3R)-3-amino-2-hydroxy-4-phenylbutanoylamino]-4-methylpentanoic acid] |  |  | substantially no adverse effects
